Among the data in article PMC11952508 (bioRxiv, 2025) are IC50 values, retold here.

SMILES strings stand for the structures.

Among the targets are CLK3 (Homo sapiens, UniProt P49761); CLK1 (Homo sapiens, UniProt P49759); CLK2 (Homo sapiens, UniProt P49760).
What all share (test): in vitro NanoGlo kinase activity assay, n=[…]
Assay type in all cases: biochemical

CLK3, sequence (P49761 whole entry): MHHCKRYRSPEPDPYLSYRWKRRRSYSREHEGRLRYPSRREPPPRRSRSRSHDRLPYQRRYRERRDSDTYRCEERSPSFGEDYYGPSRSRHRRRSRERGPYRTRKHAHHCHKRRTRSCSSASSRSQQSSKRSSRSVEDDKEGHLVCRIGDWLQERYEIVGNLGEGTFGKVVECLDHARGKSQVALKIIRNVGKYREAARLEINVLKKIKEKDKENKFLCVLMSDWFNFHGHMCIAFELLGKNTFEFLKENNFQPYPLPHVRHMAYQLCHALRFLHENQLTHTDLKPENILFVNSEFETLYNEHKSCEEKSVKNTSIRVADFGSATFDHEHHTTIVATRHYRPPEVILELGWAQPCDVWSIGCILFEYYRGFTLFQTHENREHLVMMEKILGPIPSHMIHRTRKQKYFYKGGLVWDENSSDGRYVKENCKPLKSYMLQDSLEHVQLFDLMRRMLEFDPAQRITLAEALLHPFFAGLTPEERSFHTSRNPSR
CLK1, sequence (P49759 whole entry): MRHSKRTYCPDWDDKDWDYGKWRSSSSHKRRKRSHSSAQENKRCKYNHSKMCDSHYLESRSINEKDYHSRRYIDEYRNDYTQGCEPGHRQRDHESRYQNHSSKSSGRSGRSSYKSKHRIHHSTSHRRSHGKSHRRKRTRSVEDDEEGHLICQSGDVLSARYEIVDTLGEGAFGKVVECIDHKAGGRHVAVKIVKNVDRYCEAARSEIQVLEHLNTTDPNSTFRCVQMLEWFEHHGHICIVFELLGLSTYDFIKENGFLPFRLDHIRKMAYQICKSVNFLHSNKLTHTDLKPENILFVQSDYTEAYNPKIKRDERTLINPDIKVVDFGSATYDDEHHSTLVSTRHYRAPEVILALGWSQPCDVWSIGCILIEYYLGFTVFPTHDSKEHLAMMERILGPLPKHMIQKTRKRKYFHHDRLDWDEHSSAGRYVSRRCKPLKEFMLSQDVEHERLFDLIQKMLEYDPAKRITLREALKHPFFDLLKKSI
CLK2, sequence (P49760 whole entry): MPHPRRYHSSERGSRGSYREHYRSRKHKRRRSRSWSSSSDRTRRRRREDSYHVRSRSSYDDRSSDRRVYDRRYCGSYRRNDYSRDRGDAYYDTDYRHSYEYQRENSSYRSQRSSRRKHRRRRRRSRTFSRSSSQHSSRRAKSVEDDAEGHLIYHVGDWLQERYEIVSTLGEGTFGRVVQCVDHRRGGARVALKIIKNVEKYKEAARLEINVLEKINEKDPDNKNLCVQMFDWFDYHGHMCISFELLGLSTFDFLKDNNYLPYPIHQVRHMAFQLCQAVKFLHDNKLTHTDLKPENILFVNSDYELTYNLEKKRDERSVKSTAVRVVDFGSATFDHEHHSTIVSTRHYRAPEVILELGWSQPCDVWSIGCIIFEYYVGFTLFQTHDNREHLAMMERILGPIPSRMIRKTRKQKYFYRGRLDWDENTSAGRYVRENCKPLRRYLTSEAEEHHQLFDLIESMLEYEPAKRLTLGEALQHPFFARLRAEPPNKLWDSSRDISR

For the compound `O=C(Nc1cc(C2CCCC2)n[nH]1)c1ccc2c(c1)[nH]c(=O)n2C1CCCC1` [SR-1815], the values for the 50% inhibitory concentration (IC50) on CLK3, on CLK1 and against CLK2 were 6.8 µM, 0.446 µM and 0.605 µM, respectively.
